In test [1] the test system is Palivizumab. Nature of the test: Microtiter plate chromatography of resins: binding and elution of Palivizumab. Conditions: fraction of injected protein bound; 0.5 mg/ml IgG in PBS pH 7.3. The method, then: (§1) Resins were assessed in packed mode by microtiter plate chromatography. For each column, approximately 30 μl of resin were transferred to a 384-well filter plate and sealed with appropriate top fits. Columns with rProtein A SEPHAROSE 4 FF and MABSORBENT A2P HF were included as controls.
(§2) Either 3.3 cv of whole IgGs dissolved at 0.5 mg ml^−1 in PBS or undiluted host cell proteins (HCP) were injected onto columns.
(§3) Unbound protein was washed from columns with 5 cv of PBS prior to elution with 5 cv of glycine buffer at pH 2.5. […] During injection of samples, speed was reduced to 10 g and centrifugation time increased to 5-10 min. Effluent fractions were collected in 384-well plates and concentrations of protein were analyzed by Bradford assay. Protein masses mi, mft and me (see below) were calculated as the product of fraction volume and measured protein concentration.
(§4) The fraction of bound protein was calculated as the difference between the total mass of protein injected mi and the mass of protein detected in the flowthrough mft, divided by the total mass of protein injected.
(§5) The yield of protein was calculated as the mass of protein eluted me, divided by the mass of protein injected mi.
(§6) The fraction of bound protein and the yield of protein were calculated for each resin based on data for whole IgG-antibodies. In the case of host cell proteins, only the fraction of bound protein is given. Selectivity of resins was calculated from data for Bevacizumab whole IgG and host cell proteins. Due to limited experimental precision, selectivity was truncated for values beyond 10.

Test [2] concerns Cetuximab. The test can be described thus: Microtiter plate chromatography of resins: binding and elution of Cetuximab. Conditions: fraction of injected protein bound; 0.5 mg/ml IgG in PBS pH 7.3. The protocol: as §1, §2, §3, §4, §5, §6
Test [3] has as its system poly-IgG from human serum (h-poly-IgG). The test can be described thus: Microtiter plate chromatography of resins: binding and elution of human poly-IgG. Conditions: fraction of injected protein bound; 0.5 mg/ml IgG in PBS pH 7.3. The protocol: as §1, §2, §3, §4, §5, §6
The test system of test [4] is host cell proteins (HCP). The test can be described thus: Microtiter plate chromatography of resins: binding of host cell proteins. The arrangement: species or system CHO cell culture. The following applies: fraction of injected undiluted host cell proteins bound. The method, then:
Flowthrough from protein A chromatography (referred to as host cell proteins) was derived from the supernatant of antibody-producing CHO cell culture in serum-free medium. Coomassie brilliant blue dye reagent for Bradford assay was purchased from Thermo Scientific (Bonn/Germany).
as §1, §2, §3, §4, §6

Test [5] concerns Tocilizumab. The test can be described thus: Microtiter plate chromatography of resins: binding and elution of Tocilizumab. Conditions: fraction of injected protein bound; 0.5 mg/ml IgG in PBS pH 7.3. The protocol:
as §1, §2, §3, §4, §5, §6

In test [6] the test system is Bevacizumab. The test can be described thus: Microtiter plate chromatography of resins: binding and elution of Bevacizumab. Conditions: fraction of bound Bevacizumab divided by fraction of bound HCP; truncated for values beyond 10. The method, then: as §1, §2, §3, §4, §5
(§7) The selectivity of resins was calculated as the fraction of bound Bevacizumab antibody BAb, divided by the fraction of bound host cell proteins BHCP.
as §6

Test [7] deals with T1, Bevacizumab (Homo sapiens, UniProt P01857).
T1 construct: 0.5 mg/ml IgG in PBS pH 7.3; ligand immobilized on SEPHAR; Bevacizumab Yield; other: mass eluted (glycine pH 2.5) / mass injected; kd (dissociation constant, Langmuir isotherm); other: Bevacizumab 0.05-5 mg/ml in PBS pH 7.3, 25° C., at least 3 h; qm (maximum capacity); other: mg Bevacizumab per ml of resin; Langmuir isotherm; t0; fused on or other part: Humanized anti-VEGF-A VH domain joined N-terminally to the IGHG1 constant region (engineered, no UniProt entry)
The test is described as above. Conditions: for Bevacizumab Bound: fraction of injected protein bound, 0.5 mg/ml IgG in PBS pH 7.3, ligand immobilized on SEPHAROSE 4 FF; for Bevacizumab Yield: mass eluted (glycine pH 2.5) / mass injected. The method, then: as §1, §2, §3, §4, §5, §7, §6

Experimental findings from patent publication US9745339B2 (GRAFFINITY PHARMACEUTICALS GMBH, priority 2012, dated 2017) are described below.

Regarding `Cc1ccc(NC(=O)c2ccc3c(c2)ncn3CCCN)nn1` [Ligand L34, 1-(3-Amino-1-propyl)benzimidazole-5-carboxylic acid N-(6-methylpyridazin-3-yl) amide], in test [1], the “Palivizumab Bound” value was found to be 78%. For the same molecule, the “Cetuximab Bound” value in test [2] worked out at 100%. In addition, the “h-poly-IgG Bound” value in test [3] is 78%. For the same molecule, the “HCP Bound” value in test [4] is on record as 10%. Also, the “Tocilizumab Bound” value in test [5] was 85%. Besides, in test [6], the Selectivity was determined as 10.0. In test [7], the “Bevacizumab Bound” value came out at 100% and the “Bevacizumab Yield” value is listed as 104%.

As to `NCCCOc1ccc(C(=O)Nc2nnc(-c3ccco3)s2)cc1` [Ligand L20, 4-[(1-Amino-3-propyl)oxy]benzoic acid N-[5-(2-furyl)-1,3,4-thiadiazol-2-yl] amide], the “Palivizumab Bound” value in test [1] was 100%. The “Cetuximab Bound” value in test [2] is 100%. In addition, in test [3], the “h-poly-IgG Bound” value is recorded as 100%. Further, in test [4], the “HCP Bound” value is recorded as 35%. The “Tocilizumab Bound” value in test [5] stood at 100%. Moreover, the Selectivity in test [6] is 2.9. Besides, in test [7], the “Bevacizumab Bound” value worked out at 100% and the “Bevacizumab Yield” value is on record as 100%.

Turning to `NCCCn1cnc2cc(C(=O)Nc3nnc(-c4ccccc4)s3)ccc21` [Ligand L33, 1-(3-Amino-1-propyl)benzimidazole-5-carboxylic acid N-(2-phenyl-1,3,4-thiadiazol-5-yl) amide], in test [1], the “Palivizumab Bound” value was determined as 100%. The “Cetuximab Bound” value in test [2] was 100%. In addition, in test [3], the “h-poly-IgG Bound” value is reported as 100%. For the same molecule, the “HCP Bound” value in test [4] is on record as 34%. Moreover, the “Tocilizumab Bound” value in test [5] was 100%. The same molecule gave a Selectivity in test [6] of 2.9. Moreover, in test [7], the “Bevacizumab Bound” value is on record as 100% and the “Bevacizumab Yield” value came to 105%.

As for `NCCCOc1ccc(C(=O)Nc2nc(-c3ccccn3)cs2)cc1` [Ligand L38, 4-[(1-Amino-3-propyl)oxy]benzoic acid N-[4-(2-pyridyl)thiazol-2-yl] amide], the “Palivizumab Bound” value in test [1] stood at 95%. For the same molecule, the “Cetuximab Bound” value in test [2] is recorded as 100%. Moreover, in test [3], the “h-poly-IgG Bound” value is 99%. Also, the “HCP Bound” value in test [4] amounted to 35%. Further, the “Tocilizumab Bound” value in test [5] came to 99%. For the same molecule, the Selectivity in test [6] amounted to 2.9. For the same molecule, in test [7], the “Bevacizumab Bound” value is listed as 100% and the “Bevacizumab Yield” value came to 106%.

Regarding `NCCCn1cnc2cc(C(=O)Nc3nccs3)ccc21` [Ligand L16, 1-(3-Amino-1-propyl)benzimidazole-5-carboxylic acid N-(thiazol-2-yl) amide], the “Palivizumab Bound” value in test [1] is 87%. Further, the “Cetuximab Bound” value in test [2] came out at 100%. Besides, the “h-poly-IgG Bound” value in test [3] is 88%. Further, the “HCP Bound” value in test [4] is 37%. Besides, in test [5], the “Tocilizumab Bound” value is listed as 100%. In test [6], this molecule showed a Selectivity of 2.7. Besides, in test [7], the “Bevacizumab Bound” value is on record as 100% and the “Bevacizumab Yield” value was determined as 96%.

With `NCCCn1cnc2cc(C(=O)Nc3nc4ccccc4o3)ccc21` [Ligand L08, 1-(3-Amino-1-propyl)benzimidazole-5-carboxylic acid N-(benzoxazol-2-yl) amide], the “Palivizumab Bound” value in test [1] is on record as 91%. The “Cetuximab Bound” value in test [2] is 100%. For the same molecule, the “h-poly-IgG Bound” value in test [3] was 95%. The “HCP Bound” value in test [4] is listed as 39%. The “Tocilizumab Bound” value in test [5] amounted to 100%. In addition, the Selectivity in test [6] worked out at 2.6. Besides, in test [7], the “Bevacizumab Bound” value came to 100% and the “Bevacizumab Yield” value turned out to be 100%.

In the case of `Cc1cnc(NC(=O)c2ccc3c(c2)ncn3CCCN)s1` [Ligand L17, 1-(3-Amino-1-propyl)benzimidazole-5-carboxylic acid N-(5-methylthiazol-2-yl) amide], the “Palivizumab Bound” value in test [1] is 88%. Besides, in test [2], the “Cetuximab Bound” value amounted to 100%. Further, the “h-poly-IgG Bound” value in test [3] is 89%. In test [4], the “HCP Bound” value is 34%. For the same molecule, the “Tocilizumab Bound” value in test [5] is 100%. In test [6], the Selectivity worked out at 2.9. Further, in test [7], the “Bevacizumab Bound” value is recorded as 100% and the “Bevacizumab Yield” value worked out at 100%.
